How the values were obtained:
Type in all cases: cell-based, human
[1] = test system: HNSCC tumor tissue; assay: IHC for CD8, PD-L1, PD-1 and FOXP3 positive cells in tumor microenvironment platform; conditions: T3
Description: The effect of Pembrolizumab and Nivolumab on CD8^+ T cell tumor infiltration was then evaluated. Tumor sections from the same patient cultured for 72 hours in the tumor microenvironment platform were treated with Pembrolizumab, Nivolumab, or IgG as control and stained for H&E, Ki67, Caspase 3, and CD8 at day 3 in culture (T3). Baseline staining was determined at TO. […] To further elucidate the effects of the anti-PD-1 antibodies, FACS analysis was performed on tumor tissue from patient 2941 and patient 2942 treated with either Pembrolizumab, Nivolumab, or IgG control. […] By contrast, there was no effect of either Pembrolizumab or Nivolumab on CD8^+ T cell infiltration for patient 2942, further highlighting the differential response between individuals to PD-1 blockade. CD8^+ T cell infiltration was evaluated in the tumor microenvironment platform with tumor tissue from the same patient, and comparisons for control vs Nivo, control vs Pembro, Nivo vs Pembro, and control vs Nivo vs Pembro for multiple patients are shown in FIG. 6 (each line represents results from the tumor microenvironment platform cultured with tumor tissue from a single individual).
The effect of Pembrolizumab and Nivolumab on the expression of immunoregulatory molecules, including PD-1 and FOXP3, in the tumor microenvironment platform tumor microbed was evaluated. Tumor sections from the same patient cultured for 3 days (72 hours) in the tumor microenvironment platform were treated with Pembrolizumab, Nivolumab, or IgG control and stained for CD8, FOXP3, and PD-1 at day 3 in culture (T3). Baseline staining was determined at TO. Results are shown in FIG. 7A for tumor sections from a predicted responder to Pembrolizumab or Nivolumab and FIG. 7B for a predicted non-responder to Pembrolizumab or Nivolumab, as characterized by M-score. There was in increase in the number of PD-1^+ cells in the tumor microbed for both Pembrolizumab and Nivolumab, which was to a greater degree in the case of Nivolumab, when compared to IgG control in the responder (FIG. 7A). There was no change for either Pembrolizumab and Nivolumab in the non-responder (FIG. 7B). The numbers of PD-L1^+ tumor cells, PD-1^+ T cells, FOXP3^+ T-regulatory cells, and CD8^+ T cells were evaluated using the tumor microenvironment platform with tumor tissue from the same patient in Nivolumab, Pembrolizumab, and control conditions, and are summarized in Table 3. Comparisons for control vs Nivo, control vs Pembro, Nivo vs Pembro, and control vs Nivo vs Pembro for multiple patients are shown in FIG. 8 (each line represents results from the tumor microenvironment platform cultured with tumor tissue from a single individual).

[2] = test system: HNSCC tumor tissue; assay: H&E staining and IHC for Ki67 and Caspase 3 in tumor microenvironment platform; conditions: patient 2941
Description: The effects of Pembrolizumab and Nivolumab on proliferation in the tumor microenvironment platform were then evaluated. Tumor sections from the same patient cultured for 72 hours in the tumor microenvironment platform (performed in at least biological triplicate) were treated with Pembrolizumab, Nivolumab, or IgG as control. Tissue was subsequently formalin fixed and paraffin embedded, and processed for H&E staining and immuno histochemical staining (IHC) with Ki67 and Caspase 3 at day 3 in culture (T3). Baseline staining was determined at TO.
The effect of Pembrolizumab and Nivolumab on CD8^+ T cell tumor infiltration was then evaluated. Tumor sections from the same patient cultured for 72 hours in the tumor microenvironment platform were treated with Pembrolizumab, Nivolumab, or IgG as control and stained for H&E, Ki67, Caspase 3, and CD8 at day 3 in culture (T3). Baseline staining was determined at TO. […] CD8^+ T cell infiltration was evaluated in the tumor microenvironment platform with tumor tissue from the same patient, and comparisons for control vs Nivo, control vs Pembro, Nivo vs Pembro, and control vs Nivo vs Pembro for multiple patients are shown in FIG. 6 (each line represents results from the tumor microenvironment platform cultured with tumor tissue from a single individual).

[3] = test system: Tumor sections; assay: FACS analysis for CD25, CD127 and FOXP3 expression, tumor sections
Description: The effect of treatment with Nivolumab and Pembrolizumab on CD25, CD127, and FOXP3 expression was then evaluated. Tumor sections or PBNCs from the same patient cultured for 3 days in the tumor microenvironment platform were treated with Pembrolizumab, Nivolumab, or IgG control for one day followed by FACS analysis for expression of CD25, CD127, and FOXP3.

Caspase 3 activity (IHC) ([2]; T3, associated with increased CD8^+ T cell infiltration): increased Caspase 3 activity
Substance: Nivolumab
# cells/field PD-1^+ ([1]; Patient ID 2916, control 0): 0 cells/field
# cells/field PD-L1^+ ([1]; Patient ID 2916, control 1): 2 cells/field
# cells/field FOXP3^+ ([1]; Patient ID 2916, control 3): 4 cells/field
# cells/field CD8^+ ([1]; Patient ID 2916, control 20): 30 cells/field
# cells/field PD-1^+ ([1]; Patient ID 2918, control 2): 0 cells/field
# cells/field FOXP3^+ ([1]; Patient ID 2918, control 3): 2 cells/field
# cells/field CD8^+ ([1]; Patient ID 2918, control 10): 3 cells/field
# cells/field PD-L1^+ ([1]; Patient ID 2918, control 10): 20 cells/field
# cells/field PD-1^+ ([1]; Patient ID 2926, control 0): 0 cells/field
# cells/field PD-L1^+ ([1]; Patient ID 2926, control 3): 3 cells/field
# cells/field FOXP3^+ ([1]; Patient ID 2926, control 4): 3 cells/field
# cells/field CD8^+ ([1]; Patient ID 2926, control 25): 20 cells/field
# cells/field PD-1^+ ([1]; Patient ID 2928, control 0): 0 cells/field
# cells/field PD-L1^+ ([1]; Patient ID 2928, control 0): 3 cells/field
# cells/field CD8^+ ([1]; Patient ID 2928, control 4): 15 cells/field
# cells/field FOXP3^+ ([1]; Patient ID 2928, control 4): 5 cells/field
# cells/field CD8^+ ([1]; Patient ID 2939, control 0): 2 cells/field
# cells/field PD-1^+ ([1]; Patient ID 2939, control 0): 0 cells/field
# cells/field FOXP3^+ ([1]; Patient ID 2939, control 1): 2 cells/field
# cells/field PD-L1^+ ([1]; Patient ID 2939, control 10): 10 cells/field
# cells/field PD-1^+ ([1]; Patient ID 2941, control 0): 2 cells/field
# cells/field FOXP3^+ ([1]; Patient ID 2941, control 3): 2 cells/field
# cells/field PD-L1^+ ([1]; Patient ID 2941, control 3): 5 cells/field
# cells/field CD8^+ ([1]; Patient ID 2941, control 5): 3 cells/field
# cells/field PD-1^+ ([1]; Patient ID 2942, control 0): 0 cells/field
# cells/field PD-L1^+ ([1]; Patient ID 2942, control 0): 0 cells/field
# cells/field CD8^+ ([1]; Patient ID 2942, control 3): 1 cells/field
# cells/field FOXP3^+ ([1]; Patient ID 2942, control 3): 4 cells/field
# cells/field FOXP3^+ ([1]; Patient ID 2948, control 1): 1 cells/field
# cells/field PD-1^+ ([1]; Patient ID 2948, control 1): 0 cells/field
# cells/field PD-L1^+ ([1]; Patient ID 2948, control 10): 1 cells/field
# cells/field CD8^+ ([1]; Patient ID 2948, control 20): 20 cells/field
# cells/field PD-1^+ ([1]; Patient ID 2949, control 1): 3 cells/field
# cells/field FOXP3^+ ([1]; Patient ID 2949, control 5): 5 cells/field
# cells/field PD-L1^+ ([1]; Patient ID 2949, control 20): 20 cells/field
# cells/field CD8^+ ([1]; Patient ID 2949, control 50): 35 cells/field
# cells/field PD-1^+ ([1]; Patient ID 2956, control 0): 0 cells/field
# cells/field CD8^+ ([1]; Patient ID 2956, control 1): 7 cells/field
# cells/field PD-L1^+ ([1]; Patient ID 2956, control 2): 3 cells/field
# cells/field FOXP3^+ ([1]; Patient ID 2956, control 8): 10 cells/field
# cells/field PD-1^+ ([1]; Patient ID 2963, control 0): 0 cells/field
# cells/field CD8^+ ([1]; Patient ID 2963, control 6): 4 cells/field
# cells/field FOXP3^+ ([1]; Patient ID 2963, control 10): 2 cells/field
# cells/field PD-L1^+ ([1]; Patient ID 2963, control 12): 12 cells/field
# cells/field PD-1^+ ([1]; Patient ID 2978, control 0): 0 cells/field
# cells/field FOXP3^+ ([1]; Patient ID 2978, control 1): 1 cells/field
# cells/field PD-L1^+ ([1]; Patient ID 2978, control 1): 1 cells/field
# cells/field CD8^+ ([1]; Patient ID 2978, control 12): 17 cells/field
# cells/field PD-1^+ ([1]; Patient ID 2979, control 0): 0 cells/field
# cells/field FOXP3^+ ([1]; Patient ID 2979, control 2): 1 cells/field
# cells/field PD-L1^+ ([1]; Patient ID 2979, control 5): 5 cells/field
# cells/field CD8^+ ([1]; Patient ID 2979, control 25): 25 cells/field
# cells/field PD-1^+ ([1]; Patient ID 2980, control 0): 0 cells/field
# cells/field FOXP3^+ ([1]; Patient ID 2980, control 1): 1 cells/field
# cells/field PD-L1^+ ([1]; Patient ID 2980, control 8): 1 cells/field
# cells/field CD8^+ ([1]; Patient ID 2980, control 30): 10 cells/field
# cells/field FOXP3^+ ([1]; Patient ID 2981, control 0): 1 cells/field
# cells/field PD-1^+ ([1]; Patient ID 2981, control 0): 0 cells/field
# cells/field PD-L1^+ ([1]; Patient ID 2981, control 0): 0 cells/field
# cells/field CD8^+ ([1]; Patient ID 2981, control 1): 15 cells/field
CD8^+ T cell infiltration (IHC) ([1]; patient 2941, vs IgG control): increased CD8^+ T cell infiltration
number of PD-1^+ cells in the tumor microbed ([1]; predicted non-responder, vs IgG control): no change
number of PD-1^+ cells in the tumor microbed ([1]; predicted responder, vs IgG control, to a greater degree in the case of Nivolumab): increase
proliferation (Ki67 IHC) ([2]; 72 hours, vs IgG control): diminished proliferation
CD25^+/FOXP3^− Tumor (% total cells) ([3]; Non-Responder, control 6.52): 6.45 % total cells
CD25^+/CD127^+ Tumor (% total cells) ([3]; Non-Responder, control 19.6): 16.1 % total cells
CD25^−/CD127^− Tumor (% total cells) ([3]; Non-Responder, control 22.1): 21.7 % total cells
CD25^−/FOXP3^− Tumor (% total cells) ([3]; Non-Responder, control 23.6): 17.5 % total cells
CD25^+/CD127^− Tumor (% total cells) ([3]; Non-Responder, control 25.4): 22.1 % total cells
CD25^−/CD127^+ Tumor (% total cells) ([3]; Non-Responder, control 33.0): 40.1 % total cells
CD25^+/FOXP3^+ Tumor (% total cells) ([3]; Non-Responder, control 34.4): 29.5 % total cells
CD25^− FOXP3^+ Tumor (% total cells) ([3]; Non-Responder, control 35.5): 46.5 % total cells
CD25^−/CD127^− Tumor (% total cells) ([3]; Responder, control 12.2): 15.6 % total cells
CD25^− FOXP3^+ Tumor (% total cells) ([3]; Responder, control 18.9): 45.7 % total cells
CD25^−/FOXP3^− Tumor (% total cells) ([3]; Responder, control 20.3): 4.62 % total cells
CD25^+/CD127^− Tumor (% total cells) ([3]; Responder, control 23.0): 25.4 % total cells
CD25^−/CD127^+ Tumor (% total cells) ([3]; Responder, control 24.3): 31.8 % total cells
CD25^+/FOXP3^− Tumor (% total cells) ([3]; Responder, control 25.7): 5.20 % total cells
CD25^+/FOXP3^+ Tumor (% total cells) ([3]; Responder, control 35.1): 44.5 % total cells
CD25^+/CD127^+ Tumor (% total cells) ([3]; Responder, control 40.5): 27.2 % total cells
functional Treg cells (CD25, CD127, FOXP3 FACS) ([3]; platform containing tumor tissue): patient sample-dependent functional Treg cell depression
